The data set in a line: physchem. Particulars: for solubility: water, thermodynamic from solid. On the procedure:
Analysis of the blend was done and its solubility in water was analyzed (table 3).
All the tablets prepared as shown in table 8 were analyzed in water to check whether there is an enhancement in solubility of the drug when compared to the pure form (table 9).
The compressed tablets prepared according table 13 were analyzed in water to check whether there is any enhancement in solubility of the drug when compared to the pure form (table 14).
All the blends and tablets prepared according to table 15 were analyzed in water for any enhancement in solubility of the drug when compared to the pure form.
The capsules were further analyzed for water solubility of the active ingredient.
The solution was spray dried using a spray drier (Inlet temperature: 55-60° C., Aspirator: 90-100%).

Values after ≈ are worked out from the molar mass of the structure shown.

`Cc1ccc(-c2cc(C(F)(F)F)nn2-c2ccc(S(N)(=O)=O)cc2)cc1` [Experiment C-1, Celecoxib]: the concentration in solution (solubility) came to 0.1 µg/mL (≈ 0.262 µM). Take `COc1cc(/C=C/C(=O)CC(=O)/C=C/c2ccc(O)c(OC)c2)ccc1O` [Experiment C-4, Curcumin]: the “Solubility of AFI/API in water” value came to 0.0 µg/mL. For the compound `O=c1c(O)c(-c2ccc(O)c(O)c2)oc2cc(O)cc(O)c12` [Experiment C-6, Quercetin], the concentration in solution (solubility) came to 3.6 µg/mL (≈ 11.9 µM). On the same count and under the same terms, to `Cc1ccc(S(=O)(=O)NC(=O)NN2CC3CCCC3C2)cc1` (centres unmarked) [Experiment C-8, Gliclazide] belongs 21 µg/mL (≈ 64.9 µM); to `NC(=O)N1c2ccccc2C=Cc2ccccc21` [Experiment C-9, Carbamazepine], 240 µg/mL (≈ 1020 µM).

(Values after US20220287345A1, “SOLUBILITY ENHANCEMENT OF POORLY SOLUBLE ACTIVES” (Evonik Operations GmbH, priority 2019, published 2022).)
